# Assay: Weight loss by thermogravimetric analysis (TG-DTA)
# Assay type: physicochemical
# Conditions: room temperature to 300° C. at 10° C./min, nitrogen gas atmosphere (100 ml/min)
# Description: Regarding requirement (c), from the viewpoint of the staining of a mold, the emitted amount of VOC, and the stability against photodegradation, the weight loss measured in a thermogravimetric analysis at a temperature of 300° C. under a nitrogen gas atmosphere preferably is less than 5% by weight, and more preferably is less than 3% by weight. The weight loss measured by the thermogravimetric analysis of a hindered amine light stabilizer (C) is a value determined by using a thermo gravimetry differential thermal analyzer (TG-DTA). Described concretely, it is a weight loss rate determined using a thermobalance when the temperature of a hindered amine light stabilizer (C) is increased from room temperature to 300° C. at a rate of 10° C. per minute under a nitrogen gas atmosphere (in a nitrogen flow at a flow rate of 100 ml/min).
# The weight loss by thermogravimetric analysis (TG-DTA) of a hindered amine light stabilizer was measured with a thermo gravimetry differential thermal analyzer from room temperature to 300° C. at a temperature increasing rate of 10° C./min under a nitrogen gas atmosphere (100 ml/min).
row,Compound,Weight loss by thermogravimetric analysis (TG-DTA)
1,"Condensate of N,N-bis(3-aminopropyl)ethylenediamine-2,4-bis[N-butyl-N-(1,2,2,6,6-pentamethyl-4-piperidyl)amino]-6-chloro-1,3,5-triazine [Example C-5]",0.6 % by weight
2,"CC(C)(C)c1ccc(OC(=O)c2cc(C(C)(C)C)c(O)c(C(C)(C)C)c2)c(C(C)(C)C)c1 [Example C-3, 2,4-Di-tert-butylphenyl 3,5-di-tert-butyl-4-hydroxybenzoate]",31.6 % by weight
3,"CN1C(C)(C)CC(OC(=O)CC(C(=O)OC2CC(C)(C)N(C)C(C)(C)C2)C(CC(=O)OC2CC(C)(C)N(C)C(C)(C)C2)C(=O)OC2CC(C)(C)N(C)C(C)(C)C2)CC1(C)C (stereo not drawn) [Example C-2, Tetrakis(1,2,2,6,6-pentamethyl-4-piperidyl) 1,2,3,4-butanetetracarboxylate]",5.8 % by weight

# From patent US8501842B2, “Polypropylene resin composition and molded article” (Sumitomo Chemical Company, Limited, priority 2007, dated 2013)
